Laboratory results from ChEMBL document CHEMBL1149856, “Insulinomimetic effect of kaempferol 3-neohesperidoside on the rat soleus muscle” (2008).
Active and inactive are the calls of the source. No cut-off for these calls is given here.

What was measured:
Rattus norvegicus = experiment: Increase in glycogen level in diabetic Wistar rat soleus muscle at 100 mg/kg after 24 hrs; type: functional
Soleus muscle [1] = experiment: Stimulation of 14C-glucose uptake in Wistar rat soleus muscle at 1 nM in presence of PD-98059; type: functional, tissue-based
[2] = Stimulation of 14C-glucose uptake in Wistar rat soleus muscle at 1 nM
Soleus muscle [3] = experiment: Inhibition of 14C-glucose uptake in Wistar rat soleus muscle at 1 nM in presence of LY-294002; type: functional, tissue-based
Soleus muscle [4] = experiment: Stimulation of 14C-glucose uptake in Wistar rat soleus muscle at 1 nM in presence of cycloheximide; type: functional, tissue-based
[5] = Stimulation of 14C-glucose uptake in Wistar rat soleus muscle at 100 nM
Soleus muscle [6] = experiment: Inhibition of 14C-glucose uptake in Wistar rat soleus muscle at 1 nM in presence of RO318220; type: functional, tissue-based

With C[C@H]1O[C@H](O[C@H]2[C@H](Oc3c(-c4ccc(O)cc4)oc4cc(O)cc(O)c4c3=O)O[C@H](CO)[C@@H](O)[C@@H]2O)[C@@H](O)[C@@H](O)[C@@H]1O the Activity (Rattus norvegicus) was 380%, the Activity (Soleus muscle [1]) was “Active” and the Activity [2] was 35%. For the same compound, the Activity (Soleus muscle [3]) was “Active”, the Activity (Soleus muscle [4]) was “Active” and the Activity [5] was 21%. For the same compound, the Activity (Soleus muscle [6]) was “Active”.
